These results are taken from patent US6313179A, “Treatment of hyperproliferative skin disorders with C18 to C20 aliphatic alcohols” (Avanir Pharmaceuticals, priority 1998, dated 2001).

In one series the test system is keloid cells. As to the kind of experiment: Comparison of n-docosanol effect between keloid and normal cells: keloid cells (Example 2). It counts as cell-based, Human. The settings on record: 15 mM; for inhibition at 15000 µM / activity at 15000 µM: Homo sapiens; for inhibition at 15000 µM: read-out: inhibition of number of keloid cells per well; for activity at 15000 µM / cells/well: Table 2; for activity at 15000 µM: compared to cells incubated with no addition, read-out: % control. On the procedure: Human keloid fibroblasts were obtained from the American Type Culture Collection (Rockville, Md.) (CRL 1762). n-Docosanol (300 mM) was suspended in the nonionic surfactant Pluronic F-68 (12 mM) as described previously (Katz et al., Proc. Natl. Acad. Sci. U.S.A., 88:10825-10829, 1991, hereby incorporated by reference). A vehicle control was prepared using the same procedure except n-docosanol was omitted. Keloid cells (2.7×10^4per well) were added to 16 mm wells containing DMEM supplemented with 10% fetal calf serum (FCS), sodium pyruvate, L-glutamine and penicillin/streptomycin. n-Docosanol (15 mM) or the corresponding Pluronic F-68 control (0.6 mM) was added (total volume=2.0 ml). Cells were harvested after incubation for 72 and 168 hours at 37° C. in a humidified 10% CO2 incubator. The number of viable cells was determined by trypan blue staining.
Human fetal lung cells (HFL; ATCC CCL 153) and keloid cells (5×10^4 cells/well) were separately added to 16 mm wells and treated as described in Example 1. The results are shown in Tables 2 (keloid cells) and 3 (human fetal lung cells).

For series [1], the system named is respiratory syncytial virus. The settings on record: suspended in a surfactant; cell culture assays; cited from earlier work.
Series [2] has as its system cutaneous Kaposi's sarcoma. As to the kind of experiment: Treatment of Kaposi's sarcoma with 10% n-docosanol cream (Example 6). Format: in vivo, Human. Particulars: 10% cream. On the procedure: HIV-positive male patients presenting with treatment-resistant cutaneous Kaposi's sarcoma were treated for 28 days, 5 times daily with the 10% n-docosanol cream formulation described in Example 4. Response to treatment was evaluated according to lesion dimensions, color of the lesion and the type of lesion (hard, soft or nodule). The data were recorded on intermittent days throughout the 28 days of the study and values were compared to baseline observations made on Day 1. Three target lesions were evaluated in each patient. Thus far, five patients have completed the study.

Series [3] deals with normal skin fibroblast (ATCC CRL 1900) cells. As to the kind of experiment: Radiolabeled n-docosanol binding to normal skin fibroblasts (Example 3). It counts as cell-based. Particulars: Table 4, n-[1-14C]docosanol 3 mM, 24 hours. On the procedure:
(§1) The following experiment examined the effect of n-docosanol on cell proliferation and quantitation of n-[1-^14 C]docosanol binding to keloid, Vero (normal African green monkey kidney; ATCC CCL 81) and normal skin fibroblast (ATCC CRL 1900) cells.
(§2) Human keloid fibroblasts, normal control skin fibroblasts and Vero cells were obtained from ATCC. n-Docosanol (30 mM) was suspended in Pluronic F-68 (1.2 mM) as described previously (Katz et al., ibid). A vehicle control was prepared using the same procedure except for the omission of n-docosanol. Radiolabeled n-[1-^14 C] docosanol suspension was prepared as described by Katz et al. (ibid.). Cells were resuspended in 1.2×10^6 cells/ml in DMEM supplemented with 10% fetal calf serum, sodium pyruvate, L-glutamine and penicillin-streptomycin. Cell suspension (0.5 ml) was added to each 35 mm well containing 1.3 ml media, followed by addition of 0.2 ml radiolabeled n-docosanol suspension (final n-docosanol concentration=3 mM). After 24 hours at 37° C. in humidified 10% CO2, the suspension was removed, wells were washed extensively with saline and cells were solubilized for scintillation counting by incubation with 0.5 ml trypsin for 15 min at 37° C. Solubilized cells were counted in a Beckman LS6000 scintillation counter. […] The number of viable cells was determined by trypan blue staining.

The conditions of series [4]: concentrations up to 300 mM; cited from earlier work.
Series [5] concerns Vero (normal African green monkey kidney; ATCC CCL 81) cells. As to the kind of experiment: Radiolabeled n-docosanol binding to Vero cells (Example 3). Format: cell-based. Particulars: Table 4, n-[1-14C]docosanol 3 mM, 24 hours. As for the experimental part:
as §1, §2

The subject of series [6] is normal skin fibroblast (ATCC CRL 1900) cells. As to the kind of experiment: Proliferation study, normal skin fibroblasts (Example 3). It counts as cell-based. On the procedure:
as §1
Human keloid fibroblasts, normal control skin fibroblasts and Vero cells were obtained from ATCC. n-Docosanol (30 mM) was suspended in Pluronic F-68 (1.2 mM) as described previously (Katz et al., ibid). A vehicle control was prepared using the same procedure except for the omission of n-docosanol. Radiolabeled n-[1-^14 C] docosanol suspension was prepared as described by Katz et al. (ibid.). Cells were resuspended in 1.2×10^6 cells/ml in DMEM supplemented with 10% fetal calf serum, sodium pyruvate, L-glutamine and penicillin-streptomycin. Cell suspension (0.5 ml) was added to each 35 mm well containing 1.3 ml media, followed by addition of 0.2 ml radiolabeled n-docosanol suspension (final n-docosanol concentration=3 mM). After 24 hours at 37° C. in humidified 10% CO2, the suspension was removed, wells were washed extensively with saline and cells were solubilized for scintillation counting by incubation with 0.5 ml trypsin for 15 min at 37° C. Solubilized cells were counted in a Beckman LS6000 scintillation counter. Samples were corrected for nonspecific binding to plates by subtracting values obtained in control wells lacking cells. To determine cell number, duplicate plates were treated with non-radiolabeled n-docosanol or control suspension at the same concentration or were left untreated. The number of viable cells was determined by trypan blue staining.

Setting [7] is: one patient, Day 15 and thereafter.

“And” between values parts separate entries of the source, which are not always exact repeats. Identical values can stand only once. Like-named read-outs stand apart in the source and are kept apart here.

For `CCCCCCCCCCCCCCCCCCCCCCO` [n-docosanol], in the series on keloid cells (72 hours), the inhibition (as a rule, the drop in the measured response relative to a control, in per cent) at 15000 µM stood at 36%; the activity at 15000 µM amounted to 64%; the cells/well is on record as 1.1 × 10^4 cells/well. In the series on keloid cells (168 hours), the inhibition at 15000 µM worked out at 85%, the activity at 15000 µM came to 15% and the cells/well was 0.4 × 10^4 cells/well. The antiviral activity entry in series [1] was “potent antiviral activity”. For the same molecule, the “patients with a response (reduction in the size of the lesions)” value in series [2] (Day 28 vs Day 1) is recorded as “three out of five”. In addition, the “lesions with reduction in size, two patients” value in series [2] (Day 28 vs Day 1, each of two patients) is on record as 3 out of 3. In addition, the “lesions with reduction in size, one patient” value in series [2] (Day 28 vs Day 1, one patient) was 2 out of 3. In addition, in series [2] (all five patients, all lesions), the “color changes in lesions” value is given as “color changes in all lesions to a lighter color”. Moreover, the “increase in lesion size” value in series [2] (any of the 15 lesions studied) is “not observed”. Moreover, in series [2] (by Day 3, one lesion), the disappearance of lesion result is “One lesion completely disappeared by Day 3”. In series [2] (setting [7]), the clinically observed swelling is “decrease in the clinically observed swelling” and the pain of lesions result is “less painful”. The “Day 28 Color” value in series [2] (Table 5, 5 times daily, 28 days, per patient and lesion) is “pale and gone and pale pink and very pale and pink and tan and lighter”. Moreover, the “percent reduction in lesion size” value in series [2] (Table 5, Day 28 vs Day 1, 5 times daily, per patient and lesion) is 75% and gone and 74% and 19% and 20% and 0% and 28% and 10%. Moreover, the “Binding per 10^6 cells” value in series [3] turned out to be 15.6 μg. Also, the cytotoxicity entry in series [4] was “not cytotoxic in concentrations up to 300 mM”. For the same molecule, the “Binding per 10^6 cells” value in series [5] is given as 8.9 μg. In addition, the “number of CRL-1900 normal skin fibroblasts (in words)” value in series [6] (3 mM, one day incubation) is reported as “not decreased”. Moreover, the activity at 3000 µM in series [6] (Skin fibroblast, Table 4, CRL-1900, 3 mM, 24 hours, compared to cells incubated with no addition, read-out: % ctrl) was found to be 98%. Also, in series [6] (Table 4, CRL-1900, 3 mM, 24 hours), the No. cells was 5.4 × 10^5 cells. The “growth of normal cells (in words)” value in series [6] (under the tissue culture conditions used, general statement on normal cells) is on record as “unaffected”.
